“And” between values parts separate entries of the source, which are not always exact repeats. Identical values can stand only once. Like-named read-outs stand apart in the source and are kept apart here.
What was measured:
[1] = cited from earlier work
[2] = biological target: T1, β-glucuronidase (Homo sapiens, UniProt P08236); assay: Standard Test: β-glucuronidase activity of human breast milk with MUG substrate (fluorescence); type: biochemical; conditions: Example 4; for X (mean activity): mean of 3; for X (mean activity) / β-glucuronidase activity (row unlabelled): in pmol/tube/h; for β-glucuronidase activity (row unlabelled): single replicates
T1 construct: We used human breast milk collected and pooled from a newborn nursery as the β-glucuronidase source; from tissue
T1 sequence (P08236 23-651): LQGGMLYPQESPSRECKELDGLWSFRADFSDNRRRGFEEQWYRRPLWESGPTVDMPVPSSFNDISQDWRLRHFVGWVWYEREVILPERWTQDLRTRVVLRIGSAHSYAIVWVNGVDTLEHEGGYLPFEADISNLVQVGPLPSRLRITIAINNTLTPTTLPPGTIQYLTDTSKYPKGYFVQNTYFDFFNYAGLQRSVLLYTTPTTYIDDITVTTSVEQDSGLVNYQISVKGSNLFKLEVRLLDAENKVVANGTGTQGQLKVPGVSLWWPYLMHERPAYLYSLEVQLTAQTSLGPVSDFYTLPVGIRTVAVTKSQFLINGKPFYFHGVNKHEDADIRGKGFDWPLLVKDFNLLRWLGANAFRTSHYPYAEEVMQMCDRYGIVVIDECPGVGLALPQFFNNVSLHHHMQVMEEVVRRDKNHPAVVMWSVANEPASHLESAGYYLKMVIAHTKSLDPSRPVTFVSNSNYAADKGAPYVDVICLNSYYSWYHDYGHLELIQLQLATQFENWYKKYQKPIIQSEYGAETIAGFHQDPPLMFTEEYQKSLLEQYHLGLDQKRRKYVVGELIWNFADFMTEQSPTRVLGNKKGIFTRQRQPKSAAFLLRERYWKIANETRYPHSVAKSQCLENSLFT
Method: We first developed a standard assay procedure (the “Standard Test”). We used human breast milk collected and pooled from a newborn nursery as the β-glucuronidase source. The samples were stored at −20° C. The milk was thawed and diluted 10× with 0.2 M sodium acetate/glacial acetic acid (NaAC) buffer pH 4.5 just prior to being used. A 4.0 mM stock solution of 4-methylumbelliferyl β-D-glucuronide (MUG, Sigma M-9130 lot#75H3777) was prepared in 0.2 M NaAC buffer pH 4.5.
Triplicate test and blank tubes contained a reaction mixture consisting of 50 μL diluted breast milk and 50 μL of an inhibitor solution diluted with 0.2 M NaAC buffer pH 4.5. Controls were prepared that contained only 50 μL diluted breast milk and 50 μL 0.2 M NaAC buffer pH 4.5. The assay was started by adding 25 μl of the MUG (4.0 mM, 0.800 mM final concentration) to the test sample to start the reaction. The final volume of the reaction was 125 μL. Both blank and test samples were vortexed and incubated at 37° C. for 1 hour (or for shorter times if indicated).
The reaction was quenched in both the test and blank samples with 3.0 ml of glycine-carbonate (320 mM: 200 mM) buffer pH 10.0. The blank samples had 25 μl of the MUG (4.0 mM, 0.800 mM final) added to them and all tubes were vortexed.
The resulting fluorescence was read using a Perkin Elmer LS5-B fluorescence spectrophotometer (360 nm excitation, 445 nm emission, autorange scale). The amount of 4-methylumbelliferone (4-MU) released by the β-glucuronidase was calculated using a 4-MU quadratic standard curve and the Mathplot software. The velocity was calculated as pmoles of 4-MU formed per hour per ml undiluted breast milk.
We diluted pooled breast milk 20× with 0.2 M NaAC buffer pH 4.5. We diluted 2.2% w/v solution of Amicase (Sigma Cat. #A2427—a mixture of free amino acids with virtually no unhydrolyzed peptides, only minimal inorganic components are present, total nitrogen ˜12.8%, amino nitrogen ˜9.8%) with buffer 5×. We then incubated 50 μl milk with 50 μl buffer and Amicase. We then added 25 μl MUG to start the reaction. We then quenched with Na-carbonate buffer pH 10.0 and read fluorescence at 360 nm ex 445 nm em. Autorange scale. The mixture of amino acids was compared to controls and Nutramigen® as follows:
We then studied the effect of specific amino acid mixtures on β-glucuronidase activity. We diluted pooled breast milk 10× with 0.2 M NaAC buffer pH 4.5 and diluted 50×stock essential amino acid solution (Sigma Cat #M7020=L-arginine.HCl 6.32 g/L, L-cystine 1.2 g/L, L-histidine.HCl.H20 2.1 g/L, L-isoleucine 2.625 g/L, L-leucine 2.62 g/L, L-lyscine.HCl 3.625 g/L, L-methionine 0.755 g/L, L-phenylalanine 1.65 g/L, L-threonine 2.38 g/L, L-tryptophane 0.51 g/L, L-tyrosine 1.8 g/L, L-valine 2.34 g/L).
We also used a non-essential AA solution=Sigma Cat #M7145=L-alanine HCl 0.89 g/L, L-asparagine.H20 1.50 g/L, L-aspartic acid 1.33 g/L, L-glutamic acid 1.47 g/L, glycine 0.75 g/L, L-proline 1.15 g/L, L-serine 1.05 g/L.
We 5×diluted 100×stock essential AA solution. We incubated 50 μl diluted milk with 50 μl buffer (control), or the essential AA solution, or the non-essential AA solution, or Nutramigen® RTU, added 25 μl MUG to start the reaction, quenched with Na-carbonate buffer, and read fluorescence (360 nm excitation: 445 nm emission). The results are as follows:
We then analyzed inhibitory effect of each of the seven amino acids in the non-essential amino acid mixture. We diluted pooled breast milk 10× with 0.2 M NaAC buffer pH 4.5, and diluted Nutramigen® RTU (N) and Nutramigen® lipid-free supernatant (LFS) 5 fold with 0.2 M NaAC buffer pH 4.5.
We prepared stock solutions of each of the non-essential amino acids L-alanine (Ala), L-asparagine (Asn), L-aspartic acid (Asp), L-glutamic acid (Glu), glycine (Gly), L-proline (Pro), and L-Serine (Ser). All solutions were at pH 4.5. The final concentration of each amino acid in the assay was the same as when the amino acids were analyzed as a mixture. […]

SMILES	serum bilirubin level ([1]; a premature infant with neonatal hyperbilirubinemia, Kohno et al. 1963)	effect on serum bilirubin concentrations ([1]; double-blind, pre-term formula-fed infants, given each of the first six days of life, Gray et al. 1971)	serum bilirubin level ([1]; some cases of hyperbilirubinemia, Saito et al. 1964)	remaining activity at 100 µM ([2]; 0.1 mM, read-out: % (activity relative to control))	remaining activity at 1000 µM ([2]; 1 mM, read-out: % (activity relative to control))	remaining activity at 10000 µM ([2]; 10 mM, read-out: % (activity relative to control))	β-glucuronidase activity, % (of control) ([2]; 0.1, 1, 10 mM)	X (mean activity) ([2]; 0.1 mM)	X (mean activity) ([2]; 1 mM)	X (mean activity) ([2]; 10 mM)	β-glucuronidase activity (row unlabelled) ([2]; 0.1 mM)	β-glucuronidase activity (row unlabelled) ([2]; 1 mM)	β-glucuronidase activity (row unlabelled) ([2]; 10 mM)
N[C@@H](CC(=O)O)C(=O)O [aspartic acid]	lowered	no effect	decreased										
CC(=O)N[C@H]1[C@H]([C@H](O)[C@H](O)CO)OC(O)(C(=O)O)C[C@@H]1O (stereo partly shown) [NAN, N-acetylneuraminic acid]				99.3%	99.2%	110%	99-100%	821.9	820.5	905.7	806.4 and 848.2 and 810.9	829.9 and 827.6 and 803.9	897.8 and 912.1 and 907.2
